In one experiment the test system is mouse cyclin D1 promoter. Kind of experiment: ChIP of Stat3 and ErbB-2 on the mouse cyclin D1 promoter in C4HD cells. Type of experiment: cell-based. The note with it: MPA 30 min. How it is done: (§1) ChIP was performed as described elsewhere (Hawthorne et al., 2005) with minor modifications. Briefly, chromatin was sonicated to an average of about 500 bp. Sonicated chromatin was then immunoprecipitated using 4 μg of either an anti-ErbB-2 or an anti-Stat3 antibody and rabbit IgG as control. The IP was collected using Protein A beads (Upstate Biotechnology, Lake Placid, N.Y.), which were washed repeatedly to remove nonspecific DNA binding. The chromatin was eluted from the beads and crosslinks were removed overnight at 65° C. DNA was then purified and quantified using real-time PCR. For sequential ChIP experiments, Stat3 immunoprecipitates were eluted with DTT and then subjected to a second round of immunoprecipitation with ErbB-2 antibody or with IgG.
(§2) ChIP DNA was amplified by real-time PCR (qPCR), performed with an ABI Prism 7500 sequence detector using SYBR green PCR master mix (Applied Biosystems, Foster City, Calif.). The primers used were as follows: 5′-TTCCGGTGGTCTGGTTCCT-3′ (SEQ ID NO:12) and 5′-[…]-3′(SEQ ID NO:13) designed to amplify a region of the mouse cyclin D1 promoter containing two GAS sites (−971 and −874), 5′-[…]-3′(SEQ ID NO:14) and 5′-[…]-3′ (SEQ ID NO:15) designed to amplify a region of the human cyclin D1 promoter containing one GAS site (−984). These primers were designed with “Primer Express” real-time PCR primer design software (Applied Biosystems). […]

A further experiment relates to human cyclin D1 promoter. Kind of experiment: ChIP of Stat3 and ErbB-2 on the human cyclin D1 promoter in T47D cells. It counts as cell-based. The conditions noted are these: MPA 30 min, primers flanking the −984 GAS site. How it is done:
as §1, §2

A further experiment has as its system ErbB-2. Kind of experiment: ErbB-2 tyrosine phosphorylation by Western blot in T47D cells. It counts as cell-based, human. The conditions noted are these: MPA. How it is done:
Primary cultures of epithelial cells from C4HD tumors were performed as described (2). T47D cells were obtained from American Type Culture Collection and T47D-Y cells were a generous gift from Dr. K. Horwitz (Denver, Colo.). To evaluate the effects of the pharmacological inhibitors on MPA-induced proteins phosphorylation or cyclin D1 expression, cells were preincubated for 90 min with RU486, PP2, Tyrphostin AG825 or Jak inhibitor I before addition of MPA. Cell proliferation was evaluated by [3H]-thymidine incorporation assay and cell cycle distribution was analyzed by flow cytometry, as described (22).
Lysates were prepared from cells subjected to the different treatments and proteins were subjected to SDS-PAGE as previously described (21). Membranes were immunoblotted with the antibodies detailed in each experiment. When phospho(p)-protein antibodies were used, filters were reprobed with total protein antibodies. Signal intensities of pErbB-2, pStat3, pSrc, pPR, pJak1, and pJak2 bands were analyzed by densitometry and normalized to total protein bands. Similarly, signal intensities of PR, cyclin D1, Stat3, and ErbB-2 bands were normalized to actin or β tubulin bands. […] The NEPER Nuclear and Cytoplasmic Extraction Reagents technique (Pierce Biotechnology) was performed as per manufacturer's instructions. Nuclear association between ErbB-2 and Stat3 was studied by performing coimmunoprecipitation experiments using 200 μg of nuclear protein lysates as described (22).

The subject of another experiment is cyclin D1 promoter. Kind of experiment: Human cyclin D1 promoter luciferase reporter in C4HD cells. It counts as cell-based, mouse. The note with it: MPA 24 h, versus cells untreated with MPA. The source says: The luciferase reporter plasmid downstream the cyclin D1 human promoter region (−1745 cyclin D1-luc), and constructs truncated at positions −963, −261, −141, were kindly provided by Dr. R. Pestell (Northwestern University Medical School, Chicago, Ill.). These constructs were generated by truncation of the 1745-bp length promoter in order to sequentially exclude 5′ regions of the promoter. The −963 cyclin D1-luc construct excludes one GAS site (−984), the −261 cyclin D1-luc excludes three GAS sites (−984, −568 and −475) and the −141 cyclin D1-luc excludes four GAS sites (−984, −568, −475 and −239). The empty vector pA3 Luc was also provided by Dr. R. Pestell. The luciferase reporter plasmid containing four copies of the m67 high-affinity binding site (p4×m67-tk-luc) and the pTATA-tk-Luc reporter lacking the m67 insertion were a gift from Dr J. Darnell (The Rockefeller University, New York, N.Y.). The Renilla luciferase expression plasmid RLCMV was obtained from Promega (Madison, Wis.). Dominant negative Stat3 expression vector, Stat3Y705-F, which carries a tyrosine to phenylalanine substitution at codon 705 that reduces phosphorylation on tyrosine of the wild-type Stat3 protein, therefore inhibiting both dimerization and DNA binding of Stat3 (6,7,16) was kindly provided by Dr J. Darnell (New York, USA). The empty pcDNA3.1 vector was also a gift of Dr J. Darnell. Human wild-type ErbB-2 expression vector (hErbB-2WT) as well as the empty pMe18SM vector were a gift from by Dr. T. Yamamoto (University of Tokyo, Japan) (1). The GFP-tagged human ErbB-2 mutant which lacks the putative nuclear localization signal sequence (aa 676-KRRQQKIRKYTMRR-689) (SEQ ID NO:3), resulting in the sequence of KLM at the deletion junction (hErbB-2ΔNLS), was generously provided by Dr. M. C. Hung (The University of Texas M.D. Anderson Cancer Center, Houston, Tex.) (Giri et al., 2005). The empty pEGFP-N1 vector was obtained from BD Biosciences Clontech (Palo Alto, Calif.). The plasmid encoding the human wild-type hPR-B was kindly provided by Dr. K. Horwitz. In experiments assessing MPA capacity to induce the transcriptional activation of Stat3, C4HD and T47D cells were transiently transfected for 48 h with 1 μg of −1745 cyclin D1-luc reporter plasmid or the truncated −963, −261 and −141 constructs, or with 1 μg p4×m67-tk-luc and 10 ng of RL-CMV used to correct variations in transfection efficiency. As control, cells were transfected with 1 μg of either the pA3 Luc or pTATA-tk-Luc reporters. Cells were cotransfected with 2 μg of Stat3Y705-F when indicated. Total amount of transfected DNA was standardized by adding the empty pcDNA3.1 vector. […] Triplicate samples were analyzed for each datum point. Differences between experimental groups were analyzed by ANOVA followed by Tukey test between groups.

Consider one compound from patent US9427458B2, “Methods for inhibiting cancer cell proliferation” (Consejo Nacional de Investigaciones Cientificas y Tecnicas, …, priority 2010, dated 2016).

Molecules are shown by their SMILES.

Consider `CC(=O)O[C@]1(C(C)=O)CC[C@H]2[C@@H]3C[C@H](C)C4=CC(=O)CC[C@]4(C)[C@H]3CC[C@@]21C` [MPA, Medroxyprogesterone acetate], for which the “binding of nuclear Stat3 and ErbB-2 to the mouse cyclin D1 promoter” value in the experiment on mouse cyclin D1 promoter is “significant and specific”. In addition, the “occupancy by Stat3 and ErbB-2 of the human cyclin D1 promoter” value in the experiment on human cyclin D1 promoter is “striking increase”. The “ErbB-2 phosphorylation at Tyr 1222 or Tyr 877” value in the experiment on ErbB-2 (PR-null T47D cells (T47D-Y)) is “no effect”. The “ErbB-2 phosphorylation at Tyr 1222 and Tyr 877” value with ErbB-2 (T47D-Y cells transfected with human PR-B (T47D-Y-PR-B)) is “markedly enhanced”. In the experiment with cyclin D1 promoter, the “increase in cyclin D1 promoter activity” value stood at 3 fold.
